Data taken from patent US4068074A, “Cephalosporin derivatives having at the 3-position of the cephem ring a heterocyclic thiomethyl group with a carboxy or sulfo group and at the 7-position of the cephem ring an α-heterocylic acylaminophenyl-acetamide group” (priority 1974, dated 1978).
In brackets after ≈: the same amount, converted by molar mass. Read-outs that look alike come from different tables or passages of the source.

Experiments:
[1] = Residual antibacterial activity after incubation with 10% liver homogenate (Table 4); type: in vitro ADME, male Sprague-Dowley rat; settings: 10% rat liver homogenate; for remaining at 0.25 h / remaining at 0.5 h / remaining at 1.5 h: 10% liver homogenate, read-out: Residual activity; for remaining at 0.25 h: 15 minute; for remaining at 0.5 h: 30 minute; for remaining at 1.5 h: 90 minute; for Residual activity: 0 minute
Experimental: (§1) The relation between the reaction period of time and the antibacterial activity (residual activity, %) when these compounds are incubated with the plasma and the liver homogenate of a male Sprague-Dowley rat is shown in Table 4. The residual antibacterial activity was measured by a thin-layer cup method according to Bacillus subtilis ATCC 6633.
B*Residual activity (%) when incubated with 10% liver homogenate.

[2] = Residual antibacterial activity after incubation with 90% plasma (Table 4); type: in vitro ADME, male Sprague-Dowley rat; settings: 90% rat plasma; for remaining at 0.25 h / remaining at 0.5 h / remaining at 1.5 h: 90% plasma; for remaining at 0.25 h: 15 minute; for remaining at 0.5 h: 30 minute; for remaining at 1.5 h: 90 minute; for Residual activity: 0 minute
Experimental: as §1
A*Residual activity (%) when incubated with 90% plasma.

[3] = test system: Micrococcus flavus ATCC 10240; test: MIC against bacteria (Table I), strain (15); type: cell-based; settings: ATCC10240; (15) Micrococcus flavus ATCC 10240; read-out: MIC
Description: (§2) Now, for illustrating the excellent pharmacological effects of the compounds of this invention, the values of MIC (γ/ml.) of the compounds against various bacteria are shown in Table 1, in which the compounds of this invention used are shown by example numbers.
(15) Micrococcus flavus ATCC 10240

Salmonella typhi H901 W = test: MIC against bacteria (Table I), strain (9); type: cell-based; settings: Salmonella enterica, TYPHI
Description: as §2
(9) Salmonella typhi H901 W

Proteus vulgaris OXK US = test: MIC against bacteria (Table I), strain (1); type: cell-based
Description: as §2
(1) Proteus vulgaris OXK US

Proteus vulgaris 0X 19US = test: MIC against bacteria (Table I), strain (2); type: cell-based; settings: 0X19US; (2) Proteus vulgaris 0X 19US; read-out: MIC
Description: as §2
(2) Proteus vulgaris 0X 19US

[4] = test system: Proteus mirabilis IXM OM-19; test: MIC against bacteria (Table I), strain (3); type: cell-based; settings: IXMOM19; (3) Proteus mirabilis IXM OM-19; read-out: MIC
Description: as §2
(3) Proteus mirabilis IXM OM-19

[5] = test system: Escherichia coli kauffmann 0-1; test: MIC against bacteria (Table I), strain (7); type: cell-based; settings: Escherichia coli
Description: as §2
(7) Escherichia coli kauffmann 0-1

Staphylococcus Onuma = test: MIC against bacteria (Table I), strain (18); type: cell-based; settings: Staphylococcus
Description: as §2
(18) Staphylococcus Onuma

Salmonella enteritidis = test: MIC against bacteria (Table I), strain (10); type: cell-based; settings: Salmonella enterica, ENTERITIDIS
Description: as §2
(10) Salmonella enteritidis

[6] = test system: Psuedomonas ovalis IMA 1002; test: MIC against bacteria (Table I), strain (6); type: cell-based; settings: (6) Psuedomonas ovalis IMA 1002; read-out: MIC
Description: as §2
(6) Psuedomonas ovalis IMA 1002

Shigella sonnei II 37148 = test: MIC against bacteria (Table I), strain (12); type: cell-based; settings: II37148; (12) Shigella sonnei II 37148; read-out: MIC
Description: as §2

[7] = test system: Klebsiella pneumoniae ATCC 10031; test: MIC against bacteria (Table I), strain (8); type: cell-based; settings: ATCC10031
Description: as §2
(8) Klebsiella pneumoniae ATCC 10031

[8] = test system: Pseudomonas aeruginosa ATCC 8689; test: MIC against bacteria (Table I), strain (4); type: cell-based; settings: ATCC8689; (4) Pseudomonas aeruginosa ATCC 8689; read-out: MIC
Description: as §2
(4) Pseudomonas aeruginosa ATCC 8689

[9] = test system: β-lactamase isolated from Pseudomonas aeruginosa 21; test: Resistance to β-lactamase: amount of unaltered test sample (Table 3); type: biochemical; settings: initial concentration 100γ/ml
Description: For example, the relation between the amount (γ/ml) of an unaltered test sample at an initial concentration of the sample 100γ/ml against β-lactamase isolated from Pseudomonas aeruginosa 21 at various dilutions of the enzyme were investigated.

[10] = test system: Bacillus subtilis ATCC 6633; test: MIC against bacteria (Table I), strain (14); type: cell-based; settings: ATCC6633; (14) Bacillus subtilis ATCC 6633; read-out: MIC
Description: as §2
(14) Bacillus subtilis ATCC 6633

[11] = test system: Staphylococcus Shimanishi; test: MIC against bacteria (Table I), strain (17); type: cell-based; settings: (17) Staphylococcus Shimanishi; read-out: MIC
Description: as §2
(17) Staphylococcus Shimanishi

[12] = test system: Pseudomonas aeruginosa 99 (Gentamycin resistant); test: MIC against bacteria (Table I), strain (5); type: cell-based; settings: (5) Pseudomonas aeruginosa 99 (Gentamycin resistant); read-out: MIC
Description: as §2
(5) Pseudomonas aeruginosa 99 (Gentamycin resistant)

[13] = test system: Shigella flexneri 2a 1675; test: MIC against bacteria (Table I), strain (11); type: cell-based; settings: 2A1675; (11) Shigella flexneri 2a 1675; read-out: MIC
Description: as §2

[14] = test system: Staphylococcus aureus 209P; test: MIC against bacteria (Table I), strain (16); type: cell-based; settings: (16) Staphylococcus aureus 209P; read-out: MIC
Description: as §2
(16) Staphylococcus aureus 209P

[15] = test system: Bacillus megatherium 10778; test: MIC against bacteria (Table I), strain (13); type: cell-based; settings: (13) Bacillus megatherium 10778; read-out: MIC
Description: as §2

[16] = Solubility of salts in water (Table 2); type: physicochemical; settings: sodium salt, in water
Description: An advantage of the compounds of this invention is that the salts, for example, sodium salts of these compounds are readily soluble in water at pH of living bodies, which makes them suitable for injections at high concentration. The solubility of these compounds are illustrated in Table 2 together with a control example.

SMILES	remaining at 0.25 h [1]	remaining at 0.5 h [1]	remaining at 1.5 h [1]	Residual activity [1]	remaining at 0.25 h [2]	remaining at 0.5 h [2]	remaining at 1.5 h [2]	Residual activity [2]	MIC [3]	MIC (Salmonella typhi H901 W)	MIC (Proteus vulgaris 0X 19US)	MIC [4]	MIC [5]	MIC (Staphylococcus Onuma)	MIC (Salmonella enteritidis)	MIC [6]	MIC (Shigella sonnei II 37148)	MIC [8]	MIC [10]	MIC [11]	further results
O=C(Cc1cccs1)N[C@@H]1C(=O)N2C(C(=O)[O-])=C(C[n+]3ccccc3)CS[C@H]12 [Cephaloridine, reference compound]	82.3%	86%	91.1%	100%	97.2%	89.5%	72.2%	100%													
Cc1nnc(SCC2=C(C(=O)O)N3C(=O)[C@@H](NC(=O)Cn4cnnn4)[C@H]3SC2)s1 [Cephazolin, reference compound]									0.19 µg/mL (≈ 0.418 µM)	1.56 µg/mL (≈ 3.43 µM)	25 µg/mL (≈ 55 µM)	6.25 µg/mL (≈ 13.8 µM)	1.56 µg/mL (≈ 3.43 µM)	1.56 µg/mL (≈ 3.43 µM)	1.56 µg/mL (≈ 3.43 µM)	> 100 µg/mL	1.56 µg/mL (≈ 3.43 µM)	> 100 µg/mL	0.19 µg/mL (≈ 0.418 µM)	0.78 µg/mL (≈ 1.72 µM)	MIC (Proteus vulgaris OXK US; Proteus vulgaris): 3.13 µg/mL (≈ 6.89 µM); MIC ([7]; Klebsiella pneumoniae): 1.56 µg/mL (≈ 3.43 µM); Amount of unaltered test sample ([9]; β-lactamase dilution ×2): 0 µg/mL; Amount of unaltered test sample ([9]; β-lactamase dilution ×4): 0 µg/mL; Amount of unaltered test sample ([9]; β-lactamase dilution ×8): 0 µg/mL; Amount of unaltered test sample ([9]; β-lactamase dilution ×16): 0 µg/mL; Amount of unaltered test sample ([9]; β-lactamase dilution ×32): 0 µg/mL; Amount of unaltered test sample ([9]; β-lactamase dilution ×64): 9.2 µg/mL; Amount of unaltered test sample ([9]; β-lactamase dilution ×128): 21.5 µg/mL; Amount of unaltered test sample ([9]; β-lactamase dilution ×256): 84.6 µg/mL; Amount of unaltered test sample ([9]; β-lactamase dilution ×512): 96.7 µg/mL; Amount of unaltered test sample ([9]; β-lactamase dilution ×1024): 100 µg/mL; MIC [12]: > 100 µg/mL; MIC [13]: 1.56 µg/mL (≈ 3.43 µM); MIC [14]: 0.19 µg/mL (≈ 0.418 µM); MIC [15]: 0.19 µg/mL (≈ 0.418 µM)
Cc1nnc(SCC2=C(C(=O)O)N3C(=O)[C@@H](NC(=O)[C@H](NC(=O)c4cnccc4O)c4ccccc4)[C@H]3SC2)s1 [Control sample, reference compound]																					Solubility (appearance of solution) ([16]; at 0.5%): clearly; Solubility (appearance of solution) ([16]; at 1%): became slight turbid; Solubility (appearance of solution) ([16]; at 5%): became turbid; Solubility (appearance of solution) ([16]; at 10%): became thickly turbid; Solubility (appearance of solution) ([16]; at 20%): gelled
O=C(O)C1=C(CSc2nnc(SCCS(=O)(=O)O)s2)CS[C@@H]2[C@H](NC(=O)[C@H](NC(=O)c3cnccc3O)c3ccccc3)C(=O)N12 [Example 9, 7-[D-α-(4-hydroxynicotinoylamido)-α-phenylacetamido]-3-(5-sulfoethylthio-1,3,4-thiadiazol-2-yl)thiomethyl-Δ^3-cephem-4-carboxylic acid]	100%	100%	102%	100%	103%	92%	100%	100%	3.13 µg/mL (≈ 4.32 µM)	1.56 µg/mL (≈ 2.15 µM)	0.39 µg/mL (≈ 0.538 µM)	0.39 µg/mL (≈ 0.538 µM)	3.13 µg/mL (≈ 4.32 µM)	6.25 µg/mL (≈ 8.62 µM)	0.39 µg/mL (≈ 0.538 µM)	12.5 µg/mL (≈ 17.2 µM)	6.25 µg/mL (≈ 8.62 µM)	12.5 µg/mL (≈ 17.2 µM)	0.39 µg/mL (≈ 0.538 µM)	3.13 µg/mL (≈ 4.32 µM)	MIC (Proteus vulgaris OXK US; (1) Proteus vulgaris OXK US, read-out: MIC): 0.19 µg/mL (≈ 0.262 µM); MIC ([7]; (8) Klebsiella pneumoniae ATCC 10031, read-out: MIC): 3.13 µg/mL (≈ 4.32 µM); MIC [12]: 12.5 µg/mL (≈ 17.2 µM); MIC [13]: 1.56 µg/mL (≈ 2.15 µM); MIC [14]: 0.78 µg/mL (≈ 1.08 µM); MIC [15]: 0.39 µg/mL (≈ 0.538 µM)
